We go through two molecules from patent publication US8252748B2, “Peptide derived from neurotensin receptor 3 and use thereof in the treatment of psychiatric diseases” (Centre National de la Recherche Scientifique—CNRS, priority 2007, dated 2012).

In one test the test system is mouse (C57Black/J). Nature of the test: Conditioned motility suppression test (CMST). In kind it is in vivo. Conditions: fluoxetine 3 mg/kg; 30 min after injection. An excerpt:
The inventors conducted three types of behavioral experiments that are regarded as classical for determining the antidepressant activity of a substance (Nestler E. J., Gould E., Manji H., Buncan M., Duman R. S., Greshenfeld H. K., Hen, R. et al. “Preclinical models: status of basic research in depression” Biol Psychiatry. 15, 503-528 (2002) (20) and Cryan, J. & Holmes, A. “The ascent of mouse: advances in modeling human depression and anxiety” Nat Rev Drug Discov. 4, 775-790 (2005) (21)). The effects of the propeptide of the present invention were compared with those of the saline solution in which it is dissolved and with those of fluoxetine, one of the most-used antidepressants in clinical practice. The mouse strain used is C57Black/J strain. TREK-1^−/− mice were also measured in these various tests.
In the next two tests, the propeptide of the present invention was administered by the IV route at a rate of 100 μl at 1 μM per animal.
C. Conditioned Motility Suppression Test (CMST) (see Daugé, V., Sebret, A., Beslot, F., Matsui, T., & Rogues B. “Behavioral profile of CCK2 receptor-deficient mice” Neuropsychopharmacol; 25: 690-698 (2001) (23).
The experiment consists of conditioning the mouse on day 1, and measuring the effects of the substances on day 2.
On day 1, each mouse is placed in a box where the floor is a metal grille connected to an electric stimulator. […]

Test [1] relates to hippocampus progenitor cells. Nature of the test: Neurogenesis (BrdU-positive cells) after 4 days of treatment. The test is classed as in vivo, mouse. The note with it: fluoxetine 3 mg/kg. An excerpt: In contrast to many antidepressants now commonly used, the efficacy of action of the peptide of the invention is very rapid. […] 93: 3908-3913 (1996) (28) and with a considerable decrease in neurogenesis in the dentate gyrus (Gould, E., Tanapat, P., McEwen, B. S., Flugge, G., Fuchs, E. “Proliferation of granule cell precursors in the dentate gyrus of adult monkeys is diminished by stress” Proc Natl Acad Sci USA, 95: 3168-3171 (1998)) (29).
The experimental protocol is that described in the material and methods (Supplement) of the work of Santarelli et al., “Requirement of hippocampal neurogenesis for the behavioral effects of antidepressants” Science, 301: 805-809 (2003) (24) apart from the duration of treatment, which is four days.
The increase was evaluated using the one-factor ANOVA test followed by the post-hoc test.

For the next test, the target named is T1, TREK-1 channel (Homo sapiens, UniProt O95069).
T1 construct: expressed in transfected cells; host or cells: COS-7 cells (ATCC CRL-1651), DEAE-dextran transfection
T1 sequence (O95069 1-426): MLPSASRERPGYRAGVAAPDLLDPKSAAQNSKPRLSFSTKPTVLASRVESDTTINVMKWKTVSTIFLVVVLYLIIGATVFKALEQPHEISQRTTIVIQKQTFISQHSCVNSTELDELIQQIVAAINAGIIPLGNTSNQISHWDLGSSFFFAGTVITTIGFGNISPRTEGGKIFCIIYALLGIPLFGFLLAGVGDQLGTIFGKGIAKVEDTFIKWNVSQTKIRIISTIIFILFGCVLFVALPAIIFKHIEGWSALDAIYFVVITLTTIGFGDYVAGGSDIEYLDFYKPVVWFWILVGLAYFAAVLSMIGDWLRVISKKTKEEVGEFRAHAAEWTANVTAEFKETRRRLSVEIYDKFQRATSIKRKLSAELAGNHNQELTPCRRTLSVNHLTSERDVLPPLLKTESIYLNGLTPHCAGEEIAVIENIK
Nature of the test: Whole-cell patch clamp of TREK-1 channel activity in transfected COS-7 cells. The test is classed as cell-based. Conditions: activation by 10 μM arachidonic acid alone (baseline 31 pA/pF). On the procedure: All the experiments for measuring the effect of the propeptide were conducted on COS-7 cells (cell line derived from kidney fibroblasts of African green monkey Cercopithecus aethiops). These cells are sown at a density of 20 000 cells/dish with diameter of 35 mm, 24 hours before being transfected by the DEAE-dextran method with 1 μg of pIRES-EGFP-TREK-1 plasmid. Measurements of current were taken 48 to 72 hours after transfection.
Culture of the COS-7 cells. The COS-7 cells (ATCC reference: CRL-1651) are cultivated in DMEM medium (Gibco)/10% fetal calf serum (FCS, ICN), at 37° C. in the presence of 5% CO2.
Transfection using DEAE dextran. On day 1, the COS-7 cells are sown at 20 000 cells per 35-mm diameter dish containing 2 ml of culture medium. On day 2, the medium is removed and the cells are covered with 200 μl of PBS (Gibco) containing 1 μg of pIRES-EGFP-TREK-1 plasmid and 100 μg of DEAE-dextran (Sigma) then placed at 37° C./5% CO2. After incubation for 30 minutes, 2 ml of medium DMEM/10% NuSerum/80 μM chloroquin is added. After 3 hours, the medium is replaced with 2 ml of DMEM/10% FCS and the cells are incubated for 48 to 72 hours before being measured by electrophysiological methods.
Electrophysiological measurements: all the measurements are taken at room temperature, i.e. at 21-22° C. The cells that were transfected by the plasmid are detected from the fluorescence emitted by the EGFP after excitation at 480 nm.
The whole-cell patch clamp technique was used for measuring the activity of the TREK-1 channels. The equipment used is the RK 400 patch-clamp amplifier (Axon Instruments, U.S.A.). The patch pipettes with resistance of 1.3 to 8 MΩ are prepared from capillaries of borosilicate glass and are filled with a solution of 155 mM KCl, 3 mM MgCl2, 5 mM EGTA, 10 mM HEPES/KOH pH 7.2.
The cell culture medium is replaced with a solution of 150 mM NaCl, 5 mM KCl, 3 mM MgCl2, 1 mM CaCl2, 10 HEPES/NaOH pH 7.4 containing 10 mM tetraethyl ammonium chloride, 3 mM of 4-aminopyridin. The cells are perfused continuously with this solution. The rest potential of the membrane of the measured cell is fixed at −80 mV.
The variations in voltage are obtained either with a continuous ramp (from −100 to +50 mV) or by potential jumps of 10 mV (from −100 to +40 mV, 1.5 second per jump).
The data obtained were analyzed with the Pclamp software. The currents described in the appended FIG. 2B were obtained at 0 mV, the results expressed are the mean values±standard deviation. The IC50 value was obtained by plotting the experimental data with a sigmoidal function.
The activity of the channel is then measured by the patch-clamp technique in whole-cell configuration as described above.

As for `CNCCC(Oc1ccc(C(F)(F)F)cc1)c1ccccc1` (stereo not drawn) [fluoxetine, reference compound], in the test with mouse (C57Black/J), the “motility relative to untreated shocked mice” value was found to be 5 times greater. Moreover, the “neurogenesis relative to physiological saline” value in test [1] is given as “identical to that induced by the injection of physiological saline solution”.
Regarding `CCCCC/C=C\C/C=C\C/C=C\C/C=C\CCCC(=O)O` [arachidonic acid, reference compound], the “current density at 0 mV” value on TREK-1 channel turned out to be 130 pA/pF.
